Test results reported in publication PMC10794144, “A novel antibiotic class targeting the lipopolysaccharide transporter” (Nature, 2024).
In brackets after ≈: the same amount, converted by molar mass. Read-outs that look alike come from different tables or passages of the source. Marks after values point to notes of the source that are not given here.

How the values were obtained:
HEK293 cells = assay: Cell-viability assay (CellTiterGlo); format: cell-based; settings: Homo sapiens, 24 h, 37 °C, 3.125–100 μM, n = 2
Experimental: Compounds were prepared in serial dilutions (3.125–100 μM in 1% DMSO) and transferred to 384-well plates together with a positive (Staurosporine) and a negative (no compound) control. In total, 25 μl of HEK293 cells (ATCC; verified by short tandem repeat PCR and mycoplasma negative) (50,000 cells per ml) were added in either low-serum-containing (0.5% fetal bovine serum (FBS)) or high-serum-containing (12.5% FBS, 1% BSA) medium (Dulbecco’s modified Eagle medium (DMEM), glucose, L-glutamine). The plates were incubated for 24 h at 37 °C and a mixture of CellTiterGlo and DMEM was added to the plates. After incubation at room temperature, the luminescence signal was read using a BioTeK reader and a calculated IC50 was derived from the data.

panel of 50 off-targets = assay: Off-target activity screening, number of hits in panel of 50; format: binding; settings: > 30% inhibition at 10 μM
hERG = hERG (Homo sapiens, UniProt Q12809); assay: hERG
Chain of hERG (Q12809 whole entry): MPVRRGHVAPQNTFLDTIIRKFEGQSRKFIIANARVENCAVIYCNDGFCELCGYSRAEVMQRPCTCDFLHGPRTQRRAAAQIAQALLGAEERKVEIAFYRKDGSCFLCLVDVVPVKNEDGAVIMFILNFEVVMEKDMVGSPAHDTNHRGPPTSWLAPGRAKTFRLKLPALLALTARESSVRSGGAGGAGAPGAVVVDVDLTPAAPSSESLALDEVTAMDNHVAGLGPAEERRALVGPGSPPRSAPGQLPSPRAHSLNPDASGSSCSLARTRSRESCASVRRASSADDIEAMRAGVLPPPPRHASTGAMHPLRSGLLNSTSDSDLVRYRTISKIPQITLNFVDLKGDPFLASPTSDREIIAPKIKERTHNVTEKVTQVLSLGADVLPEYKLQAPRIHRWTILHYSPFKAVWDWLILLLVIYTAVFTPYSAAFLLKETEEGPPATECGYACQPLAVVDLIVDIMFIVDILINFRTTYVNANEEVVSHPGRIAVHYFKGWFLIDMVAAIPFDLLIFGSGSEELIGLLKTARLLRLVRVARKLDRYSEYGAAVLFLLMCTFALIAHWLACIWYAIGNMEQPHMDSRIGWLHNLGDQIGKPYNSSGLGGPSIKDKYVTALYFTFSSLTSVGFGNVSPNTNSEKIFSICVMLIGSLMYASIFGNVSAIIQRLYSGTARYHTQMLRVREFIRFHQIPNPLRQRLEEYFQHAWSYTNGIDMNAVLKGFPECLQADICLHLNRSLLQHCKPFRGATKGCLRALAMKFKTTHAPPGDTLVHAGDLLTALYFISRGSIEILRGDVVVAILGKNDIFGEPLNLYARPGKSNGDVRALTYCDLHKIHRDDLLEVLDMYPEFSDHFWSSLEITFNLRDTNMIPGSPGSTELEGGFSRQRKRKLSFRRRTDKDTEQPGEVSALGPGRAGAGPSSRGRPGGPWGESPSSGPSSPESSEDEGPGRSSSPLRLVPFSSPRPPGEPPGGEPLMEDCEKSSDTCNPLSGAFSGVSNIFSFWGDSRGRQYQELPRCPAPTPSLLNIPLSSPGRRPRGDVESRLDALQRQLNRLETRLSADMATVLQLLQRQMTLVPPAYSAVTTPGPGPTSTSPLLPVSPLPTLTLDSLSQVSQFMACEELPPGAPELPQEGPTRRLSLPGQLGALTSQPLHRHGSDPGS

CYP2D6 = CYP2D6 (Homo sapiens, UniProt P10635); assay: CYP inhibition; format: in vitro ADME
Chain of CYP2D6 (P10635 whole entry): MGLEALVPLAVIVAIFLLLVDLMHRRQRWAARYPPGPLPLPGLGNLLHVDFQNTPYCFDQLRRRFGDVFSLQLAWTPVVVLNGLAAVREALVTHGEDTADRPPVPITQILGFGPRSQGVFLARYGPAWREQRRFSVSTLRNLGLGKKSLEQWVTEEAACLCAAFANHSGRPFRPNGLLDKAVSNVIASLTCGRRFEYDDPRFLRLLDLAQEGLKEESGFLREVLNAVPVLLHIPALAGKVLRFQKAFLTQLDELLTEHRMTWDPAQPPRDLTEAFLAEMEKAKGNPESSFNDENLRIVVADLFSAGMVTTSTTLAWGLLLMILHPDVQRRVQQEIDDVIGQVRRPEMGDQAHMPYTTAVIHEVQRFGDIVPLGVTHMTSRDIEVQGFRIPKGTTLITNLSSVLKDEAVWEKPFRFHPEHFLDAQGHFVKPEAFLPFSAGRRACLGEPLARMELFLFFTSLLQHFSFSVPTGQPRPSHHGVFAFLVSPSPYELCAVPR

[1] = Fraction unbound in mouse plasma; format: in vitro ADME
[2] = system: GSK-3A (second line so named); assay: Off-target screening (CEREP); format: biochemical, human; settings: 10 µM, duplicates
Experimental: Supplementary Table 1 │ Off-target activity screening f or MCP compou nds […]
The assays given in the table above were conducted at Eurofins CEREP S A (Celle-Lévescault, France) and were run as single point measurements in duplicates in the presence of 10 µ M of the test compound and reported as percent inhibition of the radioligand signal or control enzymatic activity. n.d., not

A. baumannii [3] = assay: Bacterial phenotypic fingerprint profiling; format: cell-based, Acinetobacter baumannii; settings: random forest model
Experimental: Sample preparation and analysis was conducted as previously described[26] for A. baumannii, with the generated and analysed dataset consisting of three independent experiments, n = 3, as the only modification to the protocol.
For the random forest analysis data proximity analysis from 4x and 8x LOED are pooled and the number of datapoints are reduced by down sampling to be equal for all reference conditions the maximal projection of the analysis. b, In the right panel an out-of-bag validation of the random forest classification model is indicated for the reference compounds. […] The degree of frequency of matching prediction correspond to the length of the individual bar segment, where a longer segment represents a higher similarity. […] Source Data

[4] = Five-day repeat dose tolerability study; format: in vivo, rat; settings: for Clinical observations: male Wistar rats, n = 4; for Clinical chemistry / Coagulation / Haematology: 5 days; for MTD: slow IV once daily for 5 days
Experimental: Assessment of tolerability was based on mortality, in-life observations, body weight, food consumption and clinical pathology during the in-life phase. Moreover, gross pathology and histopathology were performed at unscheduled or scheduled euthanasia on day 6.

A. baumannii [5] = assay: Neutropaenic mouse thigh infection model; format: in vivo; settings: for Bacterial Load (average): A. baumannii ACC01085, neutropenic mice, summary table, same as average Log CFU/Thigh
Experimental: An intramuscular inoculation of a bacterial suspension of approximately 10^6 CFU per thigh was used to induce the infection. Treatment started 2 h after infection. […] In the pneumonia model, an intratracheal inoculation of approximately 10^7 CFU per lung was used to induce the infection. Treatment started 2 h after infection. […] Standard of care antibiotic was tested at a single dose in both infection models. GraphPad Prism 8 was used for graphical presentation and to analyse data.

C. albicans ATCC 90028 = settings: for RO7223280 MIC 100%: C. albicans ATCC 90028, read at 100%
[6] = 0.6 mg/kg slow IV once daily for 5 days
[7] = 6 mg/kg slow IV once daily for 5 days

With `CN1C(=O)[C@H](CCCCN)NC(=O)[C@H](CCCN)NCc2cccnc2Sc2c(Cl)ccc(-c3ccc(C(=O)O)cc3)c2CNC(=O)[C@@H]1Cc1c[nH]c2ccccc12` [RO7202110] the IC50 (HEK293 cells) was over 100 µM, the Off-target hits (panel of 50 off-targets) was 2 # and the IC50 (hERG) was over 20 µM. The “hERG IC20” value (hERG) was over 10 µM, the Ames (Ames) was “Negative” and the “CYP inh. (2D6)” value (CYP2D6) was >50 (3A4) >50 (2C9) >50 (2D6) μM. The “fu (m), fraction unbound in mouse plasma” value [1] was 10% and the percent inhibition [2] was -6%.
For `CN1C(=O)[C@H](CCCCN)NC(=O)[C@H](CCCN)NCc2cccnc2Sc2c(Cl)ccc(Cl)c2CNC(=O)[C@@H]1Cc1c[nH]c2ccccc12` [RO7075573], the “Similarity towards RO7202110” value (A. baumannii [3]) was over 70%, the IC50 (HEK293 cells) was over 100 µM and the Off-target hits (panel of 50 off-targets) was 1 #. For the same compound, the IC50 (hERG) was over 10 µM, the “hERG IC20” value (hERG) was 4 µM and the Ames (Ames) was “Negative”. For the same compound, the “CYP inh. (2D6)” value (CYP2D6) was over 50 µM, the “fu (m), fraction unbound in mouse plasma” value [1] was 17% and the Clinical observations [4, 6] was “Slightly discolored tail after dosing”. The Clinical observations [4, 7] was “Slightly discolored tail after dosing, red extremities on D2 after dosing, prone posture, rolling gait, hypoactivity, laboured respiration, reduced food consumption – euthanized for humane reasons D2”, the Clinical chemistry ([4]; rats, 0.6 mg/kg IV) was “No relevant changes” and the Coagulation ([4]; rats, 0.6 mg/kg IV) was “No change”. For the same compound, the Haematology ([4]; rats, 0.6 mg/kg IV) was “No change”, the Clinical chemistry ([4]; rats, 6 mg/kg IV) was “Decreased HDL, triglyceride, cholesterol. Increased GLDH, AST and ALAT, CK, BUN, creatine, phosphorus, haptoglobin” and the Coagulation ([4]; rats, 6 mg/kg IV) was “Decreased prothrombin time and increased aPTT”. For the same compound, the Haematology ([4]; rats, 6 mg/kg IV) was “Decrease in haemoglobin and haematocrit, increase in neutrophils”, the “Decrease in lipid parameters (cholesterol, triglycerides, HDL)” value ([4]; rats, after intravenous administration) was over 40% and the MTD ([4]; rats) was 0.6 mg/kg. The “Decrease in thigh bacterial burden” value (A. baumannii [5]; ACC00535, neutropaenic mice, s.c. every 4 h for 24 h) was over 4 log CFU, the percent inhibition [2] was 10% and the “MIC 100%” value (C. albicans ATCC 90028; Study LGC281440) was 64 µg/mL (≈ 86.5 µM). The “MIC 100%” value (C. albicans ATCC 90028; Study LGC282160) was over 64 µg/mL, the “MIC 100%” value (C. albicans ATCC 90028; Study LGC284879) was over 64 µg/mL and the “MIC 100%” value (C. albicans ATCC 90028; Study LGC285582) was over 64 µg/mL. For the same compound, the “MIC 100%” value (C. albicans ATCC 90028; Study LGC286210) was over 64 µg/mL, the “MIC 100%” value (C. albicans ATCC 90028; Study LGC293598) was over 64 µg/mL and the “MIC 100%” value (C. albicans ATCC 90028; Study LGC294355) was over 64 µg/mL. The “MIC 100%” value (C. albicans ATCC 90028; Study LGC295147) was over 64 µg/mL, the “MIC 100%” value (C. albicans ATCC 90028; Study LGC296813) was over 64 µg/mL and the “MIC 100%” value (C. albicans ATCC 90028; Study LGC299544) was over 64 µg/mL. For the same compound, the “MIC 100%” value (C. albicans ATCC 90028; Study LGC301026) was over 64 µg/mL, the “MIC 100%” value (C. albicans ATCC 90028; Study LGC308175) was over 64 µg/mL and the “MIC 100%” value (C. albicans ATCC 90028; Study ROC010) was over 64 µg/mL. The “MIC 100%” value (C. albicans ATCC 90028; Study ROC012) was over 64 µg/mL.
With `C[C@@H](O)[C@H]1C(=O)N2C(C(=O)O)=C(S[C@@H]3CN[C@H](C(=O)N(C)C)C3)[C@H](C)[C@H]12` [meropenem, reference compound] the “delta 24 hr” value (A. baumannii [5]; A. baumannii ACC00535 (APV00535), neutropenic mice, MERO 100 mg/kg, 24 h, change of average log CFU/thigh vs vehicle at 24 h) was 0.67, the “Thigh bacterial burden outcome” value (A. baumannii [5]; ACC00535, neutropaenic mice) was “bacterial outgrowth” and the “MIC 100%” value (C. albicans ATCC 90028; Study LGC277937) was over 64 µg/mL. The “MIC 100%” value (C. albicans ATCC 90028; Study LGC279800) was over 64 µg/mL, the “MIC 100%” value (C. albicans ATCC 90028; Study LGC281440) was over 64 µg/mL and the “MIC 100%” value (C. albicans ATCC 90028; Study LGC282160) was over 64 µg/mL. For the same compound, the “MIC 100%” value (C. albicans ATCC 90028; Study LGC282623) was over 64 µg/mL, the “MIC 100%” value (C. albicans ATCC 90028; Study LGC283932) was over 64 µg/mL and the “MIC 100%” value (C. albicans ATCC 90028; Study LGC284200) was over 64 µg/mL. For the same compound, the “MIC 100%” value (C. albicans ATCC 90028; Study LGC284879) was over 64 µg/mL, the “MIC 100%” value (C. albicans ATCC 90028; Study LGC285582) was over 64 µg/mL and the “MIC 100%” value (C. albicans ATCC 90028; Study LGC286210) was over 64 µg/mL. For the same compound, the “MIC 100%” value (C. albicans ATCC 90028; Study LGC293598) was over 64 µg/mL, the “MIC 100%” value (C. albicans ATCC 90028; Study LGC294355) was over 64 µg/mL and the “MIC 100%” value (C. albicans ATCC 90028; Study LGC295147) was over 64 µg/mL. The “MIC 100%” value (C. albicans ATCC 90028; Study LGC296813) was over 64 µg/mL, the “MIC 100%” value (C. albicans ATCC 90028; Study LGC299544) was over 64 µg/mL and the “MIC 100%” value (C. albicans ATCC 90028; Study LGC301026) was over 64 µg/mL. The “MIC 100%” value (C. albicans ATCC 90028; Study LGC308175) was over 64 µg/mL, the “MIC 100%” value (C. albicans ATCC 90028; Study ROC003) was over 64 µg/mL and the “MIC 100%” value (C. albicans ATCC 90028; Study ROC004) was over 64 µg/mL. For the same compound, the “MIC 100%” value (C. albicans ATCC 90028; Study ROC005) was over 64 µg/mL, the “MIC 100%” value (C. albicans ATCC 90028; Study ROC006) was over 64 µg/mL and the “MIC 100%” value (C. albicans ATCC 90028; Study ROC008) was over 64 µg/mL. The “MIC 100%” value (C. albicans ATCC 90028; Study ROC009) was over 64 µg/mL, the “MIC 100%” value (C. albicans ATCC 90028; Study ROC010) was over 64 µg/mL and the “MIC 100%” value (C. albicans ATCC 90028; Study ROC013) was over 64 µg/mL.
In the case of `CN1C(=O)[C@H](CCCCN)NC(=O)[C@H](CCCN)NCc2cccnc2Sc2cccc(-c3ccc(C(=O)O)cc3)c2CNC(=O)[C@@H]1Cc1c[nH]c2ccccc12` [zosurabalpin], the “Similarity towards RO7202110” value (A. baumannii [3]) is reported as over 70%, the IC50 (HEK293 cells) is reported as over 100 µM and the Off-target hits (panel of 50 off-targets) is reported as 0 #. For the same compound, the IC50 (hERG) was over 20 µM, the “hERG IC20” value (hERG) was over 10 µM and the Ames (Ames) was “Negative”. For the same compound, the “CYP inh. (2D6)” value (CYP2D6) was >50 (3A4) >50 (2C9) >50 (2D6) μM, the “fu (m), fraction unbound in mouse plasma” value [1] was 37% and the Clinical observations [4, 6] was “Transiently discolored tail after dosing”. For the same compound, the Clinical observations [4, 7] was “Transiently discolored tail after dosing, body weight loss”, the Clinical chemistry ([4]; rats, 0.6 mg/kg IV) was “No relevant changes” and the Coagulation ([4]; rats, 0.6 mg/kg IV) was “No change”. The Haematology ([4]; rats, 0.6 mg/kg IV) was “No change”, the Clinical chemistry ([4]; rats, 6 mg/kg IV) was “Minimally increased BUN, creatine. Minimally decreased phosphorus” and the Coagulation ([4]; rats, 6 mg/kg IV) was “No change”. The Haematology ([4]; rats, 6 mg/kg IV) was “No change”, the MTD ([4]; rats) was 6 mg/kg and the “Bacterial Load (average)” value (A. baumannii [5]; 6 mg/kg/day q6h, 24 h) was 8.75. For the same compound, the “Bacterial Load (average)” value (A. baumannii [5]; 20 mg/kg/day q6h, 24 h) was 7.85, the “Bacterial Load (average)” value (A. baumannii [5]; 60 mg/kg/day q6h, 24 h) was 7.41 and the “Bacterial Load (average)” value (A. baumannii [5]; 100 mg/kg/day q6h, 24 h) was 6.21. For the same compound, the “Bacterial Load (average)” value (A. baumannii [5]; 160 mg/kg/day q6h, 24 h) was 4.10, the “Bacterial Load (average)” value (A. baumannii [5]; 240 mg/kg/day q6h, 24 h) was 3.37 and the “Bacterial Load (average)” value (A. baumannii [5]; 360 mg/kg/day q6h, 24 h) was 3.09. The percent inhibition [2] was -3%, the “RO7223280 MIC 100%” value (C. albicans ATCC 90028; Study LGC296813) was over 64 µg/mL and the “RO7223280 MIC 100%” value (C. albicans ATCC 90028; Study LGC299544) was over 64 µg/mL. The “RO7223280 MIC 100%” value (C. albicans ATCC 90028; Study LGC308175) was over 64 µg/mL.
For `CN1C(=O)[C@H](CCCN)NC(=O)[C@H](CCCN)NCc2ccccc2Sc2ccccc2CNC(=O)[C@@H]1Cc1c[nH]c2ccccc12` [RO7036668], the IC50 (HEK293 cells) was over 100 µM and the “CYP inh. (2D6)” value (CYP2D6) was over 50 µM.
